pEC50, pIC50: −log10 of the molar value. Blank lines part the entries; values can stand above or below the compound they belong to.
Tests used:
[1] = test system: T. brucei (bloodstream form strain 427); assay: T. brucei growth inhibition assay; type: cell-based, Trypanosoma brucei; conditions: for cellular activity improvement compared to 3: relative to compound 3
[2] = target: T1, T. brucei methionyl-tRNA synthetase (TbMetRS) (Trypanosoma brucei brucei, UniProt Q38C91); assay: Enzyme inhibition assay; type: biochemical
T1 sequence (Q38C91 1-773): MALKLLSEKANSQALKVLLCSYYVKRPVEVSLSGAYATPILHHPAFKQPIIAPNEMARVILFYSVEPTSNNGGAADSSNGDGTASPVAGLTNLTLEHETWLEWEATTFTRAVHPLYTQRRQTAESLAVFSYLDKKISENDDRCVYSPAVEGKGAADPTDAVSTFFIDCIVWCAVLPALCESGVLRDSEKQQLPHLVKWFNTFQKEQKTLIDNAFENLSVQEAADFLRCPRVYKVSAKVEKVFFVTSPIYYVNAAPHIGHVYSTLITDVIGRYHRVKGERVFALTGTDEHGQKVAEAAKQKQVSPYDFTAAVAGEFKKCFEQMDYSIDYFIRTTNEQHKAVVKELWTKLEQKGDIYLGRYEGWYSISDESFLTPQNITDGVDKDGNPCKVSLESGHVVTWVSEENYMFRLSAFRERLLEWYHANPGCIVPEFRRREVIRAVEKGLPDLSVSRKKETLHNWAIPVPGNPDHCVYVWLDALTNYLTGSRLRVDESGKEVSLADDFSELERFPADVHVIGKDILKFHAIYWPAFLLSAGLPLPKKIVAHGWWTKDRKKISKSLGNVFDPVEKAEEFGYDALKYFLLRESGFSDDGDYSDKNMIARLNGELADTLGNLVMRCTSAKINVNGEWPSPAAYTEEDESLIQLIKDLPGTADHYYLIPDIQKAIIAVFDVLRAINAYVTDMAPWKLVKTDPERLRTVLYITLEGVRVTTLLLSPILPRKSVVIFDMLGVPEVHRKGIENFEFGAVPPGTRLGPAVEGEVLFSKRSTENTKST

PK studies in mice = type: in vivo; conditions: for AUC: mice, oral administration at 50 mg/kg
[3] = Distribution of compounds between mouse plasma and brain; type: in vivo; conditions: mice, 5 mg/kg IP, 60 min after injection
[4] = test system: hepatocellular carcinoma cell line (Hep G2); assay: Mammalian cell growth inhibition assay, Hep G2; type: cell-based; conditions: Homo sapiens, HepG2, 48 h, read-out: Hep G2 EC50
[5] = test system: human lymphoblast cell line (CRL-8155); assay: Mammalian cell growth inhibition assay, CRL-8155

Structure (SMILES): O=C(Cc1cc(Cl)cc(Cl)c1)N1CCCC(c2nc3cc(Cl)ccc3[nH]2)C1 (stereo not drawn) [Compound 6, 1-(3-(5-chloro-1H-benzo[d]imidazol-2-yl)piperidin-1-yl)-2-(3,5-dichlorophenyl) ethanone]
cellular activity improvement compared to 3 [1]: approximately 5 fold

Structure (SMILES): O=C(Cc1cc(Cl)cc(Cl)c1)N1CCCC(c2nc3nc(Cl)ccc3[nH]2)C1 (stereo not drawn) [Compound 7, 1-(3-(5-chloro-1H-imidazo[4,5-b]pyridin-2-yl)piperidin-1-yl)-2-(3,5-dichlorophenyl)ethanone]
cellular activity improvement compared to 3 [1]: approximately 5 fold
pIC50 [2]: > 7.30

Structure (SMILES): Clc1cc(Cl)cc(CCN2CCCC(c3nc4nc(Cl)ccc4[nH]3)C2)c1 (stereo not drawn) [Compound 10, 5-chloro-2-(1-(3,5-dichlorophenethyl)piperidin-3-yl)-1H-imidazo[4,5-b]pyridine]
decreased potency compared to 6 ([1]; relative to compound 6): around 3 fold

Structure (SMILES): Clc1cc(Cl)cc(CNC2CCCC(c3nc4nc(Cl)ccc4[nH]3)C2)c1 (stereo not drawn) [Compound 12, 3-(5-chloro-1H-imidazo[4,5-b]pyridin-2-yl)-N-(3,5-dichlorobenzyl) cyclohexanamine]
lower EC50 compared to 6 ([1]; relative to compound 6): 4 fold

Continued, in another order:

lower EC50 compared to compound 12 ([1]; relative to compound 12): ~ 4 fold
pIC50 [2]: > 7.30
Structure (SMILES): Clc1cc(Cl)cc(CNC2CCCN(c3nc4nc(Cl)ccc4[nH]3)C2)c1 (stereo not drawn) [Compound 14, 1-(5-chloro-1H-imidazo[4,5-b]pyridin-2-yl)-N-(3,5-dichlorobenzyl)piperidin-3-amine]

AUC (PK studies in mice): 6223 min*µ mol/L
lower EC50 compared to R-isomer 15 ([1]; relative to compound 15): > 25 fold
pIC50 [2]: > 7.30
brain levels [3]: nearly undetectable
Structure (SMILES): Clc1cc(Cl)cc(CN[C@H]2CCCN(c3nc4nc(Cl)ccc4[nH]3)C2)c1 [Compound 16, (S)-1-(5-chloro-1H-imidazo[4,5-b]pyridin-2-yl)-N-(3,5-dichlorobenzyl) piperidin-3-amine]

pIC50 [2]: > 7.30
Structure (SMILES): Clc1cc(Cl)cc(CN[C@H]2CCN(c3nc4ccc(Cl)nc4[nH]3)C2)c1 [Compound 24, (S)-1-(5-chloro-3H-imidazo[4,5-b]pyridin-2-yl)-N-(3,5-dichlorobenzyl) pyrrolidin-3-amine]
more potent than the R-isomer 23 ([1]; relative to compound 23): ~ 6 fold

AUC (PK studies in mice): 952 min*µ mol/L
Cmax (PK studies in mice; mouse, whole blood, po, 50 mg/kg): 9.7 µM
pEC50 ([1]; Trypanosoma brucei, 48 h): 7.66
lower EC50 compared to compound 29 ([1]; relative to compound 29): ~ 3 fold
pIC50 [2]: > 7.30
pEC50 [4]: 4.41
Structure (SMILES): CN(CCNCc1cc(Cl)cc(Cl)c1)c1nc2nc(Cl)ccc2[nH]1 [Compound 31, N1-(5-chloro-1H-imidazo[4,5-b]pyridin-2-yl)-N2-(3,5-dichlorobenzyl)-N1-methylethane-1,2-diamine]
pEC50 ([5]; Homo sapiens, CRL8155, 48 h, read-out: CRL-8155 EC50): 4.65
selectivity index ([5]; mammalian cells versus T. brucei): 1027
